Literature values as cited in US20100063116A1 (priority 2006, published 2010).
Read-outs that look alike come from different tables or passages of the source.

Columns and labels:
[1] = test system: patients with early Parkinson's disease
[2] = test system: D2 subfamily of dopamine receptors; details: in vitro
[3] = test system: patients with early Parkinson's disease; remark: listed apart in the source
[4] = test system: dopamine receptors in the striatum and the substantia nigra; details: electrophysiologic studies in animals
[5] = end of 6-month maintenance, titrated up to 4.5 mg/day in three divided doses

Question: Which results are given for CCCN[C@@H]1CCc2nc(N)sc2C1 [Pramipexole, pramipexole]?
Answer: dose-response relationship ([1]; 1.5 mg, 3.0 mg, 4.5 mg, or 6.0 mg per day): No dose-response relationship was demonstrated; mean improvement from baseline on the UPDRS part III total score ([1]; end of 4-week maintenance, fixed doses 1.5-6.0 mg per day): 4.2; mean improvement from baseline on the UPDRS part II total score ([1]; end of 4-week maintenance, fixed doses 1.5-6.0 mg per day, regardless of dose group): 1.8; benefit of 3 mg, 4.5 mg and 6 mg per day beyond 1.5 mg/day ([1]; fixed-dose study in early Parkinson's disease patients): not shown to provide any significant benefit; intrinsic activity at the D2 subfamily of dopamine receptors [2]: full intrinsic activity; mean improvement from baseline on the UPDRS part II (ADL) total score [3, 5]: 1.9; mean improvement from baseline on the UPDRS part III total score [3, 5]: 5.0; beginning of statistically significant difference versus placebo, UPDRS part II ([3]; maximum dose 0.75 mg/day): 2 week; beginning of statistically significant difference versus placebo, UPDRS part III ([3]; maximum dose 1.5 mg/day): 3 week; effect on striatal neuronal firing rates [4]: influences striatal neuronal firing rates; volume of distribution (CV=20%): about 500 L; renal clearance (CV=25%): approximately 400 mL/min; dose recovered in urine (almost all as unchanged drug): 90%; clearance in dialysis patients (dialysis patients): extremely low; terminal half-life (elderly volunteers): about 12 hours; metabolites in plasma or urine (human, in vivo): no metabolites have been identified; pharmacokinetics in early versus advanced Parkinson's disease patients (human, in vivo): comparable; decrease of clearance compared with healthy volunteers (moderate renal impairment (creatinine clearance approximately 40 mL/min)): about 60%; time to steady-state concentrations (of dosing): ≤ 2 days; absolute bioavailability (oral): greater than 90%; linearity of pharmacokinetics (over the clinical dosage range): linear pharmacokinetics; decrease of clearance compared with healthy volunteers (severe renal impairment (creatinine clearance approximately 20 mL/min)): about 75%; effect of food on the extent of absorption (taken with food): does not affect; terminal half-life (young healthy volunteers): about 8 hours; bound to plasma proteins (plasma proteins): about 15%
